Experimental data taken from publication PMC8958505, “Discovery of Potential Neuroprotective Agents against Paclitaxel-Induced Peripheral Neuropathy” (Journal of Medicinal Chemistry, 2022).

Legend:
[1] = tested on: primary cortical neurons; experiment: Synaptogenesis assay of primary cortical neurons (image-based HCS) against paclitaxel-induced neurotoxicity; type: cell-based, mouse; conditions: for activity at 0.01 µM / activity at 1 µM: Mus musculus, Primary cortical neuron; for activity at 0.01 µM: read-out: A: Synaptogenesis (% of control) of test compound (10 nM) + paclitaxel (1 μM); for activity at 1 µM: read-out: B: Synaptogenesis (% of control) of test compound (1000 nM) + paclitaxel (1 μM); for attenuation of synaptogenesis inhibited by paclitaxel (in words): test compound 10 and 1000 nM prior to paclitaxel 1 μM, Figure 1A
Description: (§1) Herein, we wish to report that an in vitro neurite outgrowth assay of cortical neurons integrated with an image-based high-content screening (HCS) platform is used to evaluate a commercially available library of 78 minoxidil-related derivatives,[22] leading to the identification of a series of analogues able to prevent or alleviate paclitaxel-induced neurotoxicity. The project began with screening compounds with the primary culture of cortical neurons from neonatal mice. More specifically, cerebral cortex neurons cultured from P0 C57BL/6J mouse pups were incubated with a test compound (10 and 1000 nM) prior to paclitaxel (1 μM) treatment. Subsequently, both neurite outgrowth and synaptogenesis were measured to evaluate the test compounds’ neuroprotective capacity. […] This unique feature is preserved for the core-structure screening of our in-house library in the following subject. Moreover, the substituent at the C4 position appears flexible in terms of structural diversity. Collectively, CSV0A024807, the only one displaying the best neuroprotective potency on both neurite outgrowth and synaptogenesis assays, was thus elected as a potential hit compound for further development.
(§2) Primary cortical or DRG cells were fixed with 4% paraformaldehyde for 15 min following compound and paclitaxel treatment. After washing with PBS, the fixed cells were permeabilized with PBS containing 0.05% Triton X-100 for 20 min and then blocked with commercial blocking buffer (#GTX30963; GeneTex, USA) at room temperature for 1 h. Subsequently, the cortical cells were stained for the extending processes and synaptic puncta by using anti-MAP2 (#MBS502140, 1:500; Mybiosource, USA) and anti-synaptophysin (#ab32127, 1:500; Abcam, UK) overnight. DRG cells were stained for the neurite and neuron nucleus by using anti-β III tubulin (#D71G9, 1:600; Cell Signaling, USA) and anti-NeuN monoclonal antibody (#MAB377, 1:400; Millipore, USA) overnight. On the second day, the samples were washed for 30 min with wash buffer and incubated with secondary antibodies (Alexa-488, 647 1:600; Thermo Fisher, USA) and 4 μg/mL Hoechst 33258 (#94403-1ML, 1:100; Merck, USA) at room temperature for 1 h. In the initial experiments of screening the potential neuroprotective compound for CIPN, ImageXpress^Micro (IXM) high-content imaging system (Molecular Devices, USA) driven by MetaXpress software was used. Images of treated cells were automatically acquired by using a 10× objective. Twenty-one images per well were taken in each of three channels (DAPI, FITC, and Cy5) to create a whole view of the entire neural network. The integrity of the neural network was evaluated using TIF images by importing them into MetaXpress software for analysis using the module for multiparameter, such as Neurite Outgrowth, Cell Scoring, and Transfluor. Furthermore, the score of synaptogenesis was analyzed in AcuityXpress software (Molecular Devices, USA).

[2] = tested on: primary cortical neurons; experiment: Neurite outgrowth assay of primary cortical neurons (image-based HCS) against paclitaxel-induced neurotoxicity; type: cell-based, mouse; conditions: for activity at 0.01 µM / activity at 1 µM: Mus musculus, Primary cortical neuron; for activity at 0.01 µM: read-out: C: Neurite outgrowth (% of control) of test compound (10 nM) + paclitaxel (1 μM); for activity at 1 µM: read-out: D: Neurite outgrowth (% of control) of test compound (1000 nM) + paclitaxel (1 μM)
Description: as §1, §2

[3] = test compound 10 nM + paclitaxel 1 μM, mean ± SE
[4] = test compound 1000 nM + paclitaxel 1 μM, mean ± SE

Compound	activity at 0.01 µM [1, 3]	activity at 1 µM [1, 4]	activity at 0.01 µM [2, 3]	activity at 1 µM [2, 4]	attenuation of synaptogenesis inhibited by paclitaxel (in words) [1]	activity at 0.01 µM [1]	activity at 1 µM [1]	activity at 0.01 µM [2]	activity at 1 µM [2]	protective effect in the neurite outgrowth assay (in words) ([2]; test compound 10 and 1000 nM prior to paclitaxel 1 μM, Figure 1A)
COc1ccc(/C=N/Nc2cc(N(C)C)nc(N(C)C)n2)cc1 [CSV0A034004]	65 ± 6%	76 ± 2%	54 ± 7%	55 ± 4%	–	–	–	–	–	–
CN(C)c1ccc(/C=N/Nc2cc(N3CCOCC3)nc(N3CCOCC3)n2)cc1 [CSV0A041617]	30 ± 1%	30 ± 1%	93 ± 5%	94 ± 1%	–	–	–	–	–	–
CN(C)c1ccc(/C=N/Nc2cc(N3CCCCC3)nc(N3CCCCC3)n2)cc1 [CSV0A041618]	83 ± 2%	64 ± 7%	55 ± 2%	55 ± 2%	significantly attenuated	–	–	–	–	–
Oc1ccc(Cl)cc1/C=N/Nc1cc(N2CCCC2)nc(N2CCCC2)n1 [CSV0A041619]	–	–	–	–	–	54 ± 0.03%	62 ± 2%	62 ± 2%	61 ± 2%	–
CN(C)c1cc(N/N=C/c2ccccc2)nc(N(C)C)n1 [CSV0A047582]	–	–	–	–	–	73 ± 3%	77 ± 9%	69 ± 3%	67 ± 3%	–
CN(C)c1cc(N/N=C/c2cc3c(c([N+](=O)[O-])c2)OCO3)nc(N(C)C)n1 [CSV0A047583]	66 ± 4%	69 ± 5%	63 ± 3%	61 ± 3%	–	–	–	–	–	–
CN(C)c1cc(N/N=C/c2ccc(Cl)cc2Cl)nc(N(C)C)n1 [CSV0A047585]	67 ± 2%	56 ± 0.2%	57 ± 2%	57 ± 2%	–	–	–	–	–	–
O=C(NNc1cc(N2CCOCC2)nc(N2CCOCC2)n1)c1ccccc1 [CSV0A051549]	86 ± 6%	77 ± 7%	71 ± 1%	68 ± 1%	–	–	–	–	–	significant protective effect
COc1cc(/C=N/Nc2cc(N(C)C)nc(N(C)C)n2)ccc1O [CSV0A055768]	–	–	–	–	–	35 ± 4%	33 ± 0.2%	71 ± 2%	74 ± 6%	–
CN(C)c1cc(N/N=C/c2cccs2)nc(N(C)C)n1 [CSV0A055769]	83 ± 1%	97 ± 8%	68 ± 3%	62 ± 2%	significantly attenuated	–	–	–	–	–
Oc1cccc(/C=N/Nc2cc(N3CCCC3)nc(N3CCCC3)n2)c1 [CSV0A055770]	24 ± 2%	25 ± 2%	82 ± 4%	75 ± 4%	–	–	–	–	–	–
COc1ccccc1/C=N/Nc1cc(N2CCCC2)nc(N2CCCC2)n1 [CSV0A055771]	36 ± 2%	40 ± 8%	68 ± 6%	68 ± 3%	–	–	–	–	–	–
CCCN(CCC)c1cc(N/N=C/c2ccc(Cl)cc2)nc(N(CCC)CCC)n1 [CSV0A061665]	27 ± 3%	27 ± 5%	37 ± 7%	27 ± 3%	–	–	–	–	–	–
COc1ccccc1/C=N/Nc1cc(N2CCCCC2)nc(N2CCCCC2)n1 [CSV0A061666]	41 ± 1%	42 ± 4%	91 ± 3%	89 ± 7%	–	–	–	–	–	–
C(=N\Nc1cc(N2CCCCCC2)nc(N2CCCCCC2)n1)/c1ccncc1 [CSV0A061667]	40 ± 6%	41 ± 7%	82 ± 6%	82 ± 6%	–	–	–	–	–	–
O=C(CCc1ccccc1)NNc1cc(N2CCCCC2)nc(N2CCCCC2)n1 [CSV0A062711]	–	–	–	–	–	36 ± 0.5%	28 ± 3%	80 ± 11%	79 ± 6%	–
Cc1ccccc1C(=O)NNc1cc(N2CCOCC2)nc(N2CCOCC2)n1 [CSV0A062712]	52 ± 7%	51 ± 2%	67 ± 10%	63 ± 6%	–	–	–	–	–	–

Compound	activity at 0.01 µM [1, 3]	activity at 1 µM [1, 4]	activity at 0.01 µM [2, 3]	activity at 1 µM [2, 4]	attenuation of synaptogenesis inhibited by paclitaxel (in words) [1]	activity at 0.01 µM [1]	activity at 1 µM [1]	activity at 0.01 µM [2]	activity at 1 µM [2]	protective effect in the neurite outgrowth assay (in words) ([2]; test compound 10 and 1000 nM prior to paclitaxel 1 μM, Figure 1A)
CC(C)(C)c1ccc(C(=O)NNc2cc(N3CCCC3)nc(N3CCCC3)n2)cc1 [CSV0A062713]	33 ± 1%	36 ± 2%	85 ± 8%	74 ± 5%	–	–	–	–	–	–
Oc1cccc(/C=N/Nc2cc(N3CCCCC3)nc(N3CCCCC3)n2)c1 [CSV0B001120]	43 ± 5%	41 ± 5%	95 ± 9%	82 ± 2%	–	–	–	–	–	–
CC(C)(C)c1ccc(C(=O)NNc2cc(N3CCCCC3)nc(N3CCCCC3)n2)cc1 [CSV0B001160]	51 ± 5%	41 ± 1%	89 ± 7%	80 ± 5%	–	–	–	–	–	–
CN(C)c1cc(NNC(=O)c2ccc(C(C)(C)C)cc2)nc(N(C)C)n1 [CSV0B002001]	35 ± 3%	35 ± 3%	44 ± 3%	44 ± 3%	–	–	–	–	–	–
COc1cc(/C=N/Nc2cc(N3CCOCC3)nc(N3CCOCC3)n2)ccc1O [CSV0B002704]	38 ± 2%	29 ± 6%	79 ± 7%	65 ± 3%	–	–	–	–	–	–
Oc1ccccc1/C=N/Nc1cc(N2CCOCC2)nc(N2CCOCC2)n1 [CSV0B002764]	48 ± 5%	47 ± 3%	66 ± 6%	67 ± 4%	–	–	–	–	–	–
COc1cc(/C=N/Nc2cc(N3CCCCC3)nc(N3CCCCC3)n2)ccc1O [CSV0B006088]	45 ± 6%	52 ± 10%	59 ± 5%	66 ± 7%	–	–	–	–	–	–
CN(C)c1cc(NNC(=O)CCc2ccccc2)nc(N(C)C)n1 [CSV0B008273]	–	–	–	–	–	39 ± 2%	36 ± 2%	46 ± 3%	53 ± 2%	–
CCN(CC)c1cc(NNC(=O)c2ccc(C(C)(C)C)cc2)nc(N(CC)CC)n1 [CSV0B008884]	35 ± 3%	37 ± 3%	41 ± 3%	41 ± 4%	–	–	–	–	–	–
CCN(CC)c1cc(NNC(=O)CCc2ccccc2)nc(N(CC)CC)n1 [CSV0B009488]	38 ± 3%	34 ± 3%	35 ± 4%	44 ± 3%	–	–	–	–	–	–
CCN(CC)c1cc(N/N=C/c2ccc(O)c(OC)c2)nc(N(CC)CC)n1 [CSV0B009489]	34 ± 3%	36 ± 3%	39 ± 4%	41 ± 3%	–	–	–	–	–	–
COc1cc(/C=N/Nc2cc(N3CCCC3)nc(N3CCCC3)n2)ccc1O [CSV0B016174]	43 ± 3%	36 ± 4%	86 ± 3%	76 ± 4%	–	–	–	–	–	–
CCN(CC)c1cc(N/N=C/c2ccccc2O)nc(N(CC)CC)n1 [CSV0B018834]	30 ± 3%	31 ± 3%	39 ± 3%	39 ± 2%	–	–	–	–	–	–
Oc1ccccc1/C=N/Nc1cc(N2CCCCC2)nc(N2CCCCC2)n1 [CSV0B023377]	42 ± 1%	42 ± 3%	57 ± 2%	57 ± 4%	–	–	–	–	–	–
CC(C)(C)c1ccc(C(=O)NNc2cc(N3CCOCC3)nc(N3CCOCC3)n2)cc1 [CSV0B026196]	36 ± 2%	32 ± 1%	83 ± 5%	65 ± 4%	–	–	–	–	–	–
O=C(CCc1ccccc1)NNc1cc(N2CCOCC2)nc(N2CCOCC2)n1 [CSV0C009114]	–	–	–	–	–	48 ± 5%	49 ± 3%	70 ± 7%	65 ± 3%	–
O=C(CCc1ccccc1)NNc1cc(N2CCCC2)nc(N2CCCC2)n1 [CSV0C019163]	–	–	–	–	–	49 ± 4%	53 ± 1%	68 ± 7%	74 ± 1%	–
